Experimental data reported in US6803369B1, “Compounds and methods for the treatment of neoplastic disease” (priority 2000, dated 2004).

Molecular target: complex between DNA gyrase and pBR322 DNA (Staphylococcus aureus, UniProt P0A0K8+P20831)
Assay: Binding assay demonstrating ternary complex formation (SEC with HPLC/MS detection)
Design: species or system S. aureus
Source text: The above-defined compounds are an exemplary class of compounds, which display the attributes of the claimed compounds of this invention, that is, they act primarily by inhibition of topoisomerase. While the compounds and methods of the invention are directed to eukaryotic, particularly mammalian topoisomerase inhibition, bacterial DNA gyrase was used to illustrate the mechanism of action. The evidence, provided by bacterial enzyme, for such biological activity includes the fact that selective resistance to the compounds is associated with point mutations in Staphylococcus aureus GyrA and B subunits. Further, Escherichia coli and S. aureus DNA gyrase supercoiling activity is inhibited in vitro by the compounds. A ternary complex has been isolated which is composed of pBR322 relaxed circular DNA, S. aureus DNA gyrase, and test compounds. […] The compounds of the invention also show antagonism of ciprofloxacin-induced cleavage of linear DNA.
An excess of test compound is added, typically as a mixture of three ligands, and after incubation the excess compound is separated from the resulting DNA:gyrase complex using size exclusion chromatography (SEC), with reverse phase HPLC and on-line MS detection to identify and quantify the bound compound.

Chain of complex between DNA gyrase and pBR322 DNA (P20831 whole entry): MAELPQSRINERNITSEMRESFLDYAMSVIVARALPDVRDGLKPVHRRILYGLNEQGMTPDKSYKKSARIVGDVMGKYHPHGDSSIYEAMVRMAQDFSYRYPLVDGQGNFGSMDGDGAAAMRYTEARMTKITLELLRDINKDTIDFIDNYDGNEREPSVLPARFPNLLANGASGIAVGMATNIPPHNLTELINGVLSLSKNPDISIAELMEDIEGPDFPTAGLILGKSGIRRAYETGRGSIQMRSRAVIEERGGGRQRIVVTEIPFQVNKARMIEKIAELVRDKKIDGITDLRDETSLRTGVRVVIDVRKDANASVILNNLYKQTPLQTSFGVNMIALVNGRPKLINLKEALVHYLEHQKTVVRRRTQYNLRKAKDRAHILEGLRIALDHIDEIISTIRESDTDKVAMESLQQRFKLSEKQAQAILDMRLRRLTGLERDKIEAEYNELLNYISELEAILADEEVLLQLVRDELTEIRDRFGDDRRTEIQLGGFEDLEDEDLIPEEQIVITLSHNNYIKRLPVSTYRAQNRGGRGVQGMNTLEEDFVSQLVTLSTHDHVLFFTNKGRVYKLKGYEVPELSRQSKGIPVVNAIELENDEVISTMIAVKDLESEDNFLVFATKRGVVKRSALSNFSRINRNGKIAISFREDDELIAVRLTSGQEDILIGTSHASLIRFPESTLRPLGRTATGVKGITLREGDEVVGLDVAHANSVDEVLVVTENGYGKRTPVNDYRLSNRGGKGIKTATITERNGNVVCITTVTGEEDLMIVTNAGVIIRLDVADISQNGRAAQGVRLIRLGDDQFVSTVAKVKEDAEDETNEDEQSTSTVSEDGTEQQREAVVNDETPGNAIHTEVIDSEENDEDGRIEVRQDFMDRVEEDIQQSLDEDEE
Chain of complex between DNA gyrase and pBR322 DNA (P0A0K8 whole entry): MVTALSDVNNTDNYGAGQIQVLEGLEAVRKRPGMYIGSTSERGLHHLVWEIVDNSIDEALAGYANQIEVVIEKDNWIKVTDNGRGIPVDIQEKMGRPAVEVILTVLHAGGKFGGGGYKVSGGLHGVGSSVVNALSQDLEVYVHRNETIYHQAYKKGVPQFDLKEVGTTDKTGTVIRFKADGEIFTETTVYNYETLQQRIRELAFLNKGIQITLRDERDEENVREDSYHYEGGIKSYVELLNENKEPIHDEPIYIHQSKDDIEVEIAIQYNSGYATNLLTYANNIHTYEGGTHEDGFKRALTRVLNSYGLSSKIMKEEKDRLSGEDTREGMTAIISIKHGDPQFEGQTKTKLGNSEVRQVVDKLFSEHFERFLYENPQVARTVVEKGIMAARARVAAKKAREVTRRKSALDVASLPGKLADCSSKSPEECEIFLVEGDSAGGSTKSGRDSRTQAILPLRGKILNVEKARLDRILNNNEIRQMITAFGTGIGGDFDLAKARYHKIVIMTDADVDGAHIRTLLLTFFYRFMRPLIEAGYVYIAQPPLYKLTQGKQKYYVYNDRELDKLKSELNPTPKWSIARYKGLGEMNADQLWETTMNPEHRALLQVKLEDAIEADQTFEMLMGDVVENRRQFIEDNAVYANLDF

Compound: CCCCCCCN1CCN(C[C@H](O)c2ccnc3ccc(OC)cc23)C[C@H]1CO.O=C(O)C(=O)O.O=C(O)C(=O)O [SB366676-AY, [2S]-1-Heptyl-4-[2-(R)-hydroxy-2-(6methoxyquinolin-4-yl)ethyl]-2-hydroxymethylpiperazine dioxalate]
- detection in the high molecular weight fraction on the SEC column (DNA gyrase + pBR322 DNA, clear resolution from excess ligand): detected in the high molecular weight fraction
- binding detected in mixture of ligands (in the presence of SB369890 and BRL26172CC): Only binding of SB366676-AY
- stoichiometry: molecules bound to each gyrase:DNA complex (stoichiometry studies): two
